# Source: ChEMBL document CHEMBL1140354, “Novel peptide derivatives of bleomycin A5: synthesis, antitumor activity and interaction with DNA” (Bioorg Med Chem Lett, 2005)
# Columns and labels:
# Calf thymus DNA = test: Apparent binding constant to calf thymus DNA (CT-DNA); type: nucleic-acid assay; conditions: Bos taurus
# HL-60 = test: In vitro antitumor activity against humanHL-60 tumor cell line; type: functional, cell-based; conditions: Homo sapiens
# MDA-MB-435 = test: In vitro antitumor activity against human MDA-MB-435 tumor cell line; type: functional, cell-based
# BGC-823 = test: In vitro antitumor activity against humanBGC-823 tumor cell line; type: functional, cell-based; conditions: Homo sapiens
# [1] = In vitro antitumor activity against human PC-3MIE8 tumor cell line; type: functional
# Nucleic Acid = test: Thermal denaturation alteration for calf thymus DNA (CT-DNA) binding to the compound was determined; type: functional; conditions: Bos taurus
Structure (SMILES),Kb (Calf thymus DNA),IC50 (HL-60) [nM],IC50 (MDA-MB-435) [nM],IC50 (BGC-823) [nM],IC50 [1] [nM],ΔTm (Nucleic Acid) [°C]
Cc1c(N)nc([C@H](CC(N)=O)NC[C@H](N)C(N)=O)nc1C(=O)N[C@H](C(=O)N[C@H](C)[C@@H](O)[C@H](C)C(=O)N[C@H](C(=O)NCCc1nc(-c2nc(C(=O)NCCCNCCCCNC(=O)[C@H](CCCCN)NC(=O)[C@H](N)C(C)C)cs2)cs1)[C@@H](C)O)[C@@H](O[C@@H]1O[C@@H](CO)[C@@H](O)[C@H](O)[C@@H]1O[C@H]1O[C@H](CO)[C@@H](O)[C@H](OC(N)=O)[C@@H]1O)c1c[nH]cn1,408000,740,100,1170,1910,5.9
Cc1c(N)nc([C@H](CC(N)=O)NC[C@H](N)C(N)=O)nc1C(=O)N[C@H](C(=O)N[C@H](C)[C@@H](O)[C@H](C)C(=O)N[C@H](C(=O)NCCc1nc(-c2nc(C(=O)NCCCNCCCCNC(=O)[C@H](CCCCN)NC(=O)[C@@H](N)C(C)C)cs2)cs1)[C@@H](C)O)[C@@H](O[C@@H]1O[C@@H](CO)[C@@H](O)[C@H](O)[C@@H]1O[C@H]1O[C@H](CO)[C@@H](O)[C@H](OC(N)=O)[C@@H]1O)c1c[nH]cn1,463000,980,220,1010,3320,7
Cc1c(N)nc([C@H](CC(N)=O)NC[C@H](N)C(N)=O)nc1C(=O)N[C@H](C(=O)N[C@H](C)[C@@H](O)[C@H](C)C(=O)N[C@H](C(=O)NCCc1nc(-c2nc(C(=O)NCCCNCCCCNC(=O)[C@H](CC(C)C)NC(=O)[C@@H](N)C(C)C)cs2)cs1)[C@@H](C)O)[C@@H](O[C@@H]1O[C@@H](CO)[C@@H](O)[C@@H](O)[C@@H]1O[C@H]1O[C@H](CO)[C@@H](O)[C@H](OC(N)=O)[C@@H]1O)c1c[nH]cn1,423000,630,320,870,1320,1.8
Cc1c(N)nc([C@H](CC(N)=O)NC[C@H](N)C(N)=O)nc1C(=O)N[C@H](C(=O)N[C@H](C)[C@@H](O)[C@H](C)C(=O)N[C@H](C(=O)NCCc1nc(-c2nc(C(=O)NCCCNCCCCN)cs2)cs1)[C@@H](C)O)[C@@H](O[C@@H]1O[C@@H](CO)[C@@H](O)[C@@H](O)[C@@H]1O[C@H]1O[C@H](CO)[C@@H](O)[C@H](OC(N)=O)[C@@H]1O)c1c[nH]cn1,457000,250,1640,1250,1480,2.9
Cc1c(N)nc([C@H](CC(N)=O)NC[C@H](N)C(N)=O)nc1C(=O)N[C@H](C(=O)N[C@H](C)[C@@H](O)[C@H](C)C(=O)N[C@H](C(=O)NCCc1nc(-c2nc(C(=O)NCCCNCCCCNC(=O)[C@H](CCCCN)NC(=O)[C@@H](CC(C)C)NC(=O)[C@@H](N)C(C)C)cs2)cs1)[C@@H](C)O)[C@@H](O[C@@H]1O[C@@H](CO)[C@@H](O)[C@H](O)[C@@H]1O[C@H]1O[C@H](CO)[C@@H](O)[C@H](OC(N)=O)[C@@H]1O)c1c[nH]cn1,496000,70,70,600,1140,4.7
Cc1c(N)nc([C@H](CC(N)=O)NC[C@H](N)C(N)=O)nc1C(=O)N[C@H](C(=O)N[C@H](C)[C@@H](O)[C@H](C)C(=O)N[C@H](C(=O)NCCc1nc(-c2nc(C(=O)NCCCNCCCCNC(=O)[C@H](N)CCCCN)cs2)cs1)[C@@H](C)O)[C@@H](O[C@@H]1O[C@@H](CO)[C@@H](O)[C@H](O)[C@@H]1O[C@H]1O[C@H](CO)[C@@H](O)[C@H](OC(N)=O)[C@@H]1O)c1c[nH]cn1,559000,510,100,920,1080,8.4

# The next lines start with results.
Kb (Calf thymus DNA),IC50 (HL-60) [nM],IC50 (MDA-MB-435) [nM],IC50 (BGC-823) [nM],IC50 [1] [nM],Structure (SMILES),ΔTm (Nucleic Acid) [°C]
325000,660,130,1390,1830,Cc1c(N)nc([C@H](CC(N)=O)NC[C@H](N)C(N)=O)nc1C(=O)N[C@H](C(=O)N[C@H](C)[C@@H](O)[C@H](C)C(=O)N[C@H](C(=O)NCCc1nc(-c2nc(C(=O)NCCCNCCCCNC(=O)[C@@H](N)C(C)C)cs2)cs1)[C@@H](C)O)[C@@H](O[C@@H]1O[C@@H](CO)[C@@H](O)[C@H](O)[C@@H]1O[C@H]1O[C@H](CO)[C@@H](O)[C@H](OC(N)=O)[C@@H]1O)c1c[nH]cn1,1.9
249000,310,130,800,800,Cc1c(N)nc([C@H](CC(N)=O)NC[C@H](N)C(N)=O)nc1C(=O)N[C@H](C(=O)N[C@H](C)[C@@H](O)[C@H](C)C(=O)N[C@H](C(=O)NCCc1nc(-c2nc(C(=O)NCCCNCCCCNC(=O)[C@H](N)C(C)C)cs2)cs1)[C@@H](C)O)[C@@H](O[C@@H]1O[C@@H](CO)[C@@H](O)[C@H](O)[C@@H]1O[C@H]1O[C@H](CO)[C@@H](O)[C@H](OC(N)=O)[C@@H]1O)c1c[nH]cn1,1.1
283000,370,170,730,1270,Cc1c(N)nc([C@H](CC(N)=O)NC[C@H](N)C(N)=O)nc1C(=O)N[C@H](C(=O)N[C@H](C)[C@@H](O)[C@H](C)C(=O)N[C@H](C(=O)NCCc1nc(-c2nc(C(=O)NCCCNCCCCNC(=O)[C@H](N)CC(C)C)cs2)cs1)[C@@H](C)O)[C@@H](O[C@@H]1O[C@@H](CO)[C@@H](O)[C@H](O)[C@@H]1O[C@H]1O[C@H](CO)[C@@H](O)[C@H](OC(N)=O)[C@@H]1O)c1c[nH]cn1,1.5
260000,270,90,930,1180,Cc1c(N)nc([C@H](CC(N)=O)NC[C@H](N)C(N)=O)nc1C(=O)N[C@H](C(=O)N[C@H](C)[C@@H](O)[C@H](C)C(=O)N[C@H](C(=O)NCCc1nc(-c2nc(C(=O)NCCCNCCCCNC(=O)[C@H](CC(C)C)NC(=O)[C@H](N)C(C)C)cs2)cs1)[C@@H](C)O)[C@@H](O[C@@H]1O[C@@H](CO)[C@@H](O)[C@H](O)[C@@H]1O[C@H]1O[C@H](CO)[C@@H](O)[C@H](OC(N)=O)[C@@H]1O)c1c[nH]cn1,0.5
